Laboratory results from BindingDB's records for PubMed 37302340 (Chengdu University of Traditional Chinese Medicine).

Target: 5'-nucleotidase CD73 (Homo sapiens) (UniProt P21589)
Experiment: Binding affinity to human recombinant CD73 expressed in Sf9 cells assessed as inhibition constant by malachite green based spectrophotometer assay

Sequence of 5'-nucleotidase CD73 (Homo sapiens) (P21589 whole entry, looked up): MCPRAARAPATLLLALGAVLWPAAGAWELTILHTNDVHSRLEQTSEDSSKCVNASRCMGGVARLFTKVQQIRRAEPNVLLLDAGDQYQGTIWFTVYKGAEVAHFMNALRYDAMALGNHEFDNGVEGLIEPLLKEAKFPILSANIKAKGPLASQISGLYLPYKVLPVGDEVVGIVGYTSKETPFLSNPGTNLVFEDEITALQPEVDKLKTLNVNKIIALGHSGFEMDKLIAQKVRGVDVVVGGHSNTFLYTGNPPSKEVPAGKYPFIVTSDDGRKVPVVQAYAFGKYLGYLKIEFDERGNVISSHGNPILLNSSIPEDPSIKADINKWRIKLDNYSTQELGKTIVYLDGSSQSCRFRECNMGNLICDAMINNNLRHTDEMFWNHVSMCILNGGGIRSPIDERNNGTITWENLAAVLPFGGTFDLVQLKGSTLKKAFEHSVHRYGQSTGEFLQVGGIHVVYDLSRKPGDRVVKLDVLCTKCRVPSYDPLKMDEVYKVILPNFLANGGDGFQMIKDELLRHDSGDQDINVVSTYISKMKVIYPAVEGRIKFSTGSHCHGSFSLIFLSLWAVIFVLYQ

CCN(CC)c1nc(Cl)nc2c1ncn2[C@@H]1O[C@H](COCP(=O)(O)OP(=O)(O)C(Br)(Br)P(=O)(O)O)[C@@H](O)[C@H]1O
Ki: 97 nM
